Data reported in patent publication US20080124274A1, “Compositions and methods for detecting and treating tumors containing acidic areas” (priority 2006, published 2008).
Several values for one entry are separate records, joined by “and”; a condition that tells them apart may be missing. Identical values can stand only once.

Columns and labels:
[1] = urine rendered basic; cited from earlier work
tumors = details: tumor-bearing mice; reduction of about 0.3 pH units in the tumors; cited from earlier work
[2] = Titration of the sodium salt with HCl in aqueous solution
Experimental: Typically new structures that may be suitable as advanced pH-switch components are first assessed for their pKa value in normal saline. This entails preparing the sodium salt form of the structure and dissolving it at a concentration of 20 milliMolar in 15 ml of 0.15 Molar NaCl (deareated to remove CO2). […] A plot of pH versus volume of added HCl affords the effective pKa value. It is also desirable to carry out this same titration in methanol/water (1:1 by vol) in order to get an estimate of the pKa value independent of insolubility effects.

acidic areas of tumors = details: without corresponding reduction of pH in normal tissues; cited from earlier work

CC(=O)Nc1nnc(S(N)(=O)=O)s1 [Acetazolamide]
pH of the urine [1]: ≥ 7.4

O=C(O)CCCc1ccc(N(CCCl)CCCl)cc1 [Chlorambucil]
improvement in tumor growth delay (tumors): 1.7 fold

CN(C)C(=O)C=CC(=O)O [FIG. 14b]
mid-point of the transition between salt and acid (pKa value) ([2]; sodium salt titrated with HCl in aqueous solution): below 3.0

N=C(N)NCc1cccc([131I])c1 [meta-iodobenzylguanidine, reference compound]
reduction of the pH in acidic areas of tumors (acidic areas of tumors): further reduced

CCC[N+]1([O-])CCC(C(=O)O)CC1 (stereo not drawn) [structure iii in FIG. 16b, N-oxide of N-propylisonipocotic acid]
minimum of the first derivative of the titration curve (pH) ([2]; sodium salt titrated in aqueous solution): ~4.0 and ~5.6

glucose and meta-iodobenzylguanidine
reduction of the pH in acidic areas of tumors (acidic areas of tumors): ≤ 0.7 pH unit
